Results published in US20220315897A1, “METHOD FOR IN VITRO PRODUCTION OF HYALINE CARTILAGE TISSUE” (VANARIX SA, priority 2019, published 2022).

Legend:
Assay type in all cases: cell-based, human
WNT signaling = assay: Immunoblotting of chondrocytes treated with WNT signaling inhibitor; settings: 10 μM, 4 days, 2D culture in medium E
Description: (§1) XAV939 was obtained by Sigma and used at the concentration of 10 μM for 4 days in 2D culture in medium E.
Cells were lysed 30 min on ice in ice-cold RIPA buffer (Life Technologies), supplemented with phosphatase and protease inhibitors (Complete anti-protease cocktail; Roche). Protein (10 μg) was separated by SDS-PAGE (BioRad) and transferred to PVDF membranes (Amersham) Blots were probed with anti-phospho-β-catenin (Cell Signaling; 5651T), TCF-4 (Cell Signaling; 2569), Axin1 (Cell Signaling; 2087), β-actin HRP (Sigma-Aldrich) and GADPH (Cell Signaling; 2118) (1:1000) followed by the HRP-Rabbit or Mouse conjugated antibodies (1:5000).
(§2) In order to validate the role of WNT pathway downregulation during the redifferentiation phase (medium R) (FIG. 1A), the inventors replaced medium R by medium E supplemented with 10 μM of XAV-939, a WNT pathway inhibitor for 4 days (FIG. 7G).

chondrocytes [1] = assay: qPCR of ACAN and COL2A1 mRNA in chondrocytes and beads (2-step method) with WNT inhibitor; settings: 10 μM in medium E; 2-step method after 2D and 3D culture
Description: as §1
Isolation of total RNA was performed by using the RNeasy kit from Qiagen according to the manufacturer's instructions and was measured using a spectrometer. 500 ng of total RNA was used to synthesize cDNA using the PrimeScript RT Reagent Kit (Takara) according to manufacturer's protocol.
Real-time PCR was performed with PowerUp SYBR Green Master Mix (Applied Biosystems) using the QuantStudio 12K Flex Real-Time PCR System (Thermo Fisher Scientific) at the Genomic platform core facilities (University of Geneva). First, efficacy tests were performed for all primers for validation prior utilization. The relative level of each sample was normalized, at least, to […] (ALAS1). RT-PCR reactions were carried out, at least, in technical and biological triplicates, and the average cycle threshold (CT) values were determined.
as §2

chondrocytes [2] = assay: Safranin-O staining of GAG in beads from chondrocytes cultured in medium E + WNT inhibitor (2-step method); settings: medium E + 10 μM inhibitor
Description: as §1
Safranin-O staining of cartilage spheres and native cartilage formalin-fixed paraffin-embedded samples was performed, in order to reveal glycosaminoglycans (GAG) on 5 μm paraffin slices. Slides were deparaffinated by Xylol and rehydrated by consecutive alcohol bath (concentration 100%, 95% and 70%) with a final 5-minutes distilled water bath. Then, hematoxylin staining was used for nucleus counterstaining, followed by a 5-minutes wash with running hot water. Fast Green (Sigma F7252) was used to stain the cytoplasm, then washed out with acetic acid. The slides were washed out immediately with distilled water. Safranin-O 0.1% in water bath (Sigma S2255) was applied for staining of GAGs for two and a half minutes, then washed repeatedly with distilled water. Dehydration was achieved by vigorously shaking the rack 10-20 times in alcohol baths (concentration 95% and 100%), followed by a Xylol bath until slides assembly with Eukitt resin (Batch A1113, KiNDO1500).
as §2

Oc1nc(-c2ccc(C(F)(F)F)cc2)nc2c1CSCC2 [XAV-939]
axin (immunoblot) (WNT signaling): increase | phospho-β-catenin (immunoblot) (WNT signaling): increase | ACAN expression (chondrocytes [1]): increase | COL2A1 expression (chondrocytes [1]): increase | GAG Safranin-O staining of beads (chondrocytes [2]): presence of hyaline features
